# Source: US20080292584A1 (priority 2005, published 2008)
# Values joined by “and” are separate entries in the source; they are usually repeats but may differ in a detail not shown here. Equal values may be shown once. Read-outs that look alike come from different tables or passages of the source.
# Columns and labels:
# CYP1A2 [1] = assay: Induction/inhibition of CYP1A2 activity in cryopreserved human hepatocytes after 48 h exposure (phenacetin)
# From the text: Hepatocytes from three human donors were obtained from a cryopreserved hepatocyte bank (In Vitro Technologies, Inc., USA). After thawing, viable hepatocytes were transferred to collagen-coated 48-well plates for attachment in plating medium (DMEM stock (Dulbecco's modified Eagle's medium, supplemented with bovine serum albumin, fructose, N-(2-hydroxyethyl)piperazine-N′-(2-ethanesulfonate) (HEPES), and sodium bicarbonate), supplemented with antibiotics, bovine serum, hydrocortisone, insulin and minimum essential medium (MEM) nonessential amino acids). After attachment to the collagen matrix, plating medium was replaced with sandwich medium (plating medium supplemented with VITROGEN) and incubated until use.
# The supplemented KHB was replaced with 150 μL supplemented KHB containing the appropriate isoform-selective substrate and incubated for 4 hrs prior to termination by adding 150 μL ice-cold methanol, except for the CYP2C8 incubations which were terminated by adding 150 μL acetonitrile.
# All substrates were dissolved in acetonitrile.
# Replicate trials and controls were performed. […] Additionally, reference control samples were included to evaluate inducibility of CYP2B6, CYP2C9, and CYP2C19 in the test system.
# Mean specific activity values with associated p-values≦0.05 were deemed to be statistically significant.
# CYP2C8 = target: T1, CYP2C8 (Homo sapiens, UniProt P10632); details: both, pH 7.4; for Mean Conc.: 60 min; for % Turnover Mean: microsomes, 1 h
# T1 sequence (P10632 1-490): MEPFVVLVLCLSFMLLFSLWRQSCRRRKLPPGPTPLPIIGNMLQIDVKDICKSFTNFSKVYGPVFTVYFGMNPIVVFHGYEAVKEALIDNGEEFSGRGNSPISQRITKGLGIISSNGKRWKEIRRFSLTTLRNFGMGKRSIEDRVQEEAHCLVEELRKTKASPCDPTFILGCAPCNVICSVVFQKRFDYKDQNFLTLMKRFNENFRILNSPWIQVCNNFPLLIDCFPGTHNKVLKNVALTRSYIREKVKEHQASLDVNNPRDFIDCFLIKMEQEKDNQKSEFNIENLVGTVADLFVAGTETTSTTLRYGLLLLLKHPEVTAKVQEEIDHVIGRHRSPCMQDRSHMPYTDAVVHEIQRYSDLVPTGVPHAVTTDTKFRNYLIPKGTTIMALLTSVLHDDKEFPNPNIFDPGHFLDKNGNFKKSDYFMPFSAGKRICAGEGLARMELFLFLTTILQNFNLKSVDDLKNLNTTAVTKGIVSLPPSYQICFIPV
# Method: (§1) Human liver microsomes pooled from 15 individuals (male and female) (Pool HMMC-PL020; CellzDirect, Inc., In Vitro Products and Services Division) were used in some experiments of this study.
# (§2) % Turnover=100−{[TA(final)]/[mean of TA(0 min)]}×100,
# (§3) % Inhibition of Turnover=100{1−([TA(0 min)]−[TA(final-inhibitor)])/([TA(0 min)]−[TA(final-no inhibitor)])}.
# (§4) The inhibitors or vehicle control were incubated with the pooled human liver microsomes (1 mg/mL) and NADPH (1 mM) in 0.1 M phosphate buffer, pH 7.4. […] Incubations were conducted in triplicate and terminated by addition of organic solvent. Samples were extracted and analyzed by LC-MS/MS as described above.
# CYP1A2 [2] = target: T2, CYP1A2 (Homo sapiens, UniProt P05177); details: both, pH 7.4; for Mean Conc.: 60 min; for % Turnover Mean: microsomes, 1 h
# T2 sequence (P05177 1-516): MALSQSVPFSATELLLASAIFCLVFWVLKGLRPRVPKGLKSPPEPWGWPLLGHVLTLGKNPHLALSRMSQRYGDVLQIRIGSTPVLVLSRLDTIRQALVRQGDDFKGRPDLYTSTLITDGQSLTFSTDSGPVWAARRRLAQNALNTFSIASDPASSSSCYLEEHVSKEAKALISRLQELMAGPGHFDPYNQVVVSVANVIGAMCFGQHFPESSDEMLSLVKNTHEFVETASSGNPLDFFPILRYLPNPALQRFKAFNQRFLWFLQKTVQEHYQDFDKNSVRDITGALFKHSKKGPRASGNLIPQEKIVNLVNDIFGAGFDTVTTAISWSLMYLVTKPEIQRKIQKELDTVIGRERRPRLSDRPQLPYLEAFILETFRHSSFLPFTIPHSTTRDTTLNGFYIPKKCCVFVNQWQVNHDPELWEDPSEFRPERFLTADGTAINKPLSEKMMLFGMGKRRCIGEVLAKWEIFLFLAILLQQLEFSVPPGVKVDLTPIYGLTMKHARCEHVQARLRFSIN
# Method: as §1, §2, §3, §4
# CYP2A6 = target: T3, CYP2A6 (Homo sapiens, UniProt P11509); assay: Metabolism of metaxalone by expressed recombinant human CYP2A6 at 5 or 20 pmol (Example 4); details: for % Turnover Mean / [metaxalone] Mean / % Turnover % / [metaxalone]: 60 min; for % Turnover % / [metaxalone]: single replicates
# T3 sequence (P11509 1-494): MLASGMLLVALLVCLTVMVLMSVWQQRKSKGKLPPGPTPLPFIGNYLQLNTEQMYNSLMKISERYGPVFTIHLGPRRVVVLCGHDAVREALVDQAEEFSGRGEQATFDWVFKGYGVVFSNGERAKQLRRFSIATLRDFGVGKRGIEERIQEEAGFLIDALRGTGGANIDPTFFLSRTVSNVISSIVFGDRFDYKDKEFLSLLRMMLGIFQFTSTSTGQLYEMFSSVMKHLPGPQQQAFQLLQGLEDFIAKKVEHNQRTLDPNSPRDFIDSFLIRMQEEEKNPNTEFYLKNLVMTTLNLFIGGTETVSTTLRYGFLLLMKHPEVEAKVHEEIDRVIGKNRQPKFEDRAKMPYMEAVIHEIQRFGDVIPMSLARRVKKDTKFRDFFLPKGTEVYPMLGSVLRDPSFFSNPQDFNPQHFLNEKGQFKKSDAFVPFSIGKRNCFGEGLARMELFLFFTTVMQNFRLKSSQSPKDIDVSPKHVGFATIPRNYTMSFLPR
# CYP2C9 = CYP2C9 (Homo sapiens, UniProt P11712); assay: Inhibition of CYP2C9 activity in pooled human liver microsomes (tolbutamide 150 μM to 4′-methylhydroxytolbutamide); assay type: in vitro ADME; design: host or cells: cryopreserved primary human hepatocytes from three donors
# Method: All other incubations were for 30 minutes.
# Four replicates were performed.
# Two replicates were performed.
# [3] = 0.75 μM metaxalone, 5 pmol cyp, listed as Metaxalone
# [4] = 0.75 μM metaxalone, 20 pmol cyp
# [5] = 0.75 μM metaxalone, 20 pmol cyp, listed as Metaxalone
# [6] = 7.5 μM metaxalone, 5 pmol cyp, listed as Metaxalone
# [7] = 7.5 μM metaxalone, 20 pmol cyp, listed as Metaxalone
# Chain of CYP2C9 (P11712 whole entry): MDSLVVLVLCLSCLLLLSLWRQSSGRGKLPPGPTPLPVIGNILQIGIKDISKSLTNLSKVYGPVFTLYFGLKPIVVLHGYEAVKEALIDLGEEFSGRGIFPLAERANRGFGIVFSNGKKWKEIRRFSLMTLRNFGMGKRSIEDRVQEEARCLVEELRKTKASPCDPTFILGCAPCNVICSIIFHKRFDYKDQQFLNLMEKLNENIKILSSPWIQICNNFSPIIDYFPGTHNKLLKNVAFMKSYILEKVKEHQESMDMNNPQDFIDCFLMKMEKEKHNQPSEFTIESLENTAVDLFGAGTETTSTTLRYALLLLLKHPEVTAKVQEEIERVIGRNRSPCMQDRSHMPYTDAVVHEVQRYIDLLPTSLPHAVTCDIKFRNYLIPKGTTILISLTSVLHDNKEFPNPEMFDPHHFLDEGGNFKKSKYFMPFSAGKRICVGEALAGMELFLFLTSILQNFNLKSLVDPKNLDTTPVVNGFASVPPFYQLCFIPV
structure (smiles),measurement,setting,value
"Cc1cc(C)cc(OCC2CNC(=O)O2)c1 (centres unmarked) [metaxalone, 5-[(3,5-dimethylphenoxy)methyl]-2-oxazolidinone]",Inducer/Inhibitor,CYP1A2 [1],+
same,Percent of VC,"CYP1A2 [1]; Donor 2, Metaxalone 40 μM",197%
same,Acetaminophen formation Adjusted Mean ± SD,"CYP1A2 [1]; human, 4 h, 40 μM",0.0589 ± 0.00795 µM
same,Acetaminophen formation Adjusted Mean ± SD,"CYP1A2 [1]; human, 48 h, 4 μM",0.0443 ± 0.000214 µM
same,effect on CYP1A2 activity,"CYP1A2 [1]; human, hepatocytes, 48 h, 40 μM",induced CYP1A2 activity
same,Mean Conc.,CYP2C8; 0.75 μM,0.719 µM
same,Mean Conc.,CYP2C8; 7.5 μM,8.19 µM
same,% Turnover Mean,CYP2C8; 0.75 μM,6.78%
same,% Turnover Mean,CYP2C8; 7.5 μM,3.77%
same,Mean Conc.,CYP1A2 [2]; 0.75 μM,0.797 µM
same,Mean Conc.,CYP1A2 [2]; 7.5 μM,8.11 µM
same,% Turnover Mean,CYP1A2 [2]; 0.75 μM,−3.29%
same,% Turnover Mean,CYP1A2 [2]; 7.5 μM,4.77%
same,% Turnover Mean,"CYP2A6; 0.75 μM metaxalone, 5 pmol cyp",0.14%
same,[metaxalone] Mean,"CYP2A6; 0.75 μM metaxalone, 5 pmol cyp",0.790 µM
same,% Turnover %,"CYP2A6; 0.75 μM metaxalone, 5 pmol cyp",−4.1%
same,% Turnover %,CYP2A6; [3],1.8% and 2.8%
same,[metaxalone],CYP2A6; [3],0.777 µM and 0.824 µM and 0.769 µM
same,% Turnover Mean,CYP2A6; [4],0.91%
same,[metaxalone] Mean,CYP2A6; [4],0.784 µM
same,% Turnover %,CYP2A6; [4],−5.7%
same,% Turnover %,CYP2A6; [5],3.7% and 4.8%
same,[metaxalone],CYP2A6; [5],0.837 µM and 0.762 µM and 0.753 µM
same,% Turnover Mean,"CYP2A6; 7.5 μM metaxalone, 5 pmol cyp",3.7%
same,[metaxalone] Mean,"CYP2A6; 7.5 μM metaxalone, 5 pmol cyp",8.14 µM
same,% Turnover %,"CYP2A6; 7.5 μM metaxalone, 5 pmol cyp",−2.3%
same,% Turnover %,CYP2A6; [6],9.0% and 4.3%
same,[metaxalone],CYP2A6; [6],7.69 µM and 8.08 µM and 8.64 µM
same,% Turnover Mean,"CYP2A6; 7.5 μM metaxalone, 20 pmol cyp",−1.8%
same,[metaxalone] Mean,"CYP2A6; 7.5 μM metaxalone, 20 pmol cyp",8.59 µM
same,% Turnover %,CYP2A6; [7],−1.6% and 6.1% and −9.8%
same,[metaxalone],CYP2A6; [7],8.58 µM and 7.93 µM and 9.27 µM
same,Substrate,"CYP2A6; CYP isozyme 2A6, summary of studies",0
same,inhibition of CYP activity at a statistically significant level,CYP2C9; 0.3-100 μM metaxalone,no tested concentration of metaxalone inhibited activity
same,Inhibitor,"CYP2C9; CYP isozyme 2C9, summary of studies",0
same,Percent of VC,CYP2C9; metaxalone 0.3 μM,81.4%
same,Specific Activity Individual,CYP2C9; metaxalone 0.3 μM,36.3 pmol/min/mg protein and 35.8 pmol/min/mg protein and 36.2 pmol/min/mg protein
same,Specific Activity Mean ± SD,CYP2C9; metaxalone 0.3 μM,36.1 ± 0.283 pmol/min/mg protein
same,Percent of VC,CYP2C9; metaxalone 1 μM,81.6%
same,Specific Activity Individual,CYP2C9; metaxalone 1 μM,40.3 pmol/min/mg protein and 37.5 pmol/min/mg protein and 30.6 pmol/min/mg protein
same,Specific Activity Mean ± SD,CYP2C9; metaxalone 1 μM,36.2 ± 4.98 pmol/min/mg protein
same,Percent of VC,CYP2C9; metaxalone 3 μM,81.2%
same,Specific Activity Individual,CYP2C9; metaxalone 3 μM,34.8 pmol/min/mg protein and 34.0 pmol/min/mg protein and 39.1 pmol/min/mg protein
same,Specific Activity Mean ± SD,CYP2C9; metaxalone 3 μM,36.0 ± 2.75 pmol/min/mg protein
same,Percent of VC,CYP2C9; metaxalone 30 μM,91.0%
same,Specific Activity Individual,CYP2C9; metaxalone 30 μM,39.9 pmol/min/mg protein and 38.3 pmol/min/mg protein and 42.8 pmol/min/mg protein
same,Specific Activity Mean ± SD,CYP2C9; metaxalone 30 μM,40.3 ± 2.24 pmol/min/mg protein
same,Percent of VC,CYP2C9; metaxalone 100 μM,87.4%
same,Specific Activity Individual,CYP2C9; metaxalone 100 μM,43.4 pmol/min/mg protein and 36.6 pmol/min/mg protein and 36.3 pmol/min/mg protein
same,Specific Activity Mean ± SD,CYP2C9; metaxalone 100 μM,38.8 ± 4.00 pmol/min/mg protein
